Experimental data from patent EP1113726B1, “USE OF NEOHESPERIDIN DIHYDROCHALCONE FOR THE MANUFACTURE OF A MEDICAMENT FOR PREVENTING OR TREATING ELEVATED BLOOD LIPID LEVEL-RELATED DISEASES” (Korea Research Institute of Bioscience and Biotechnology, priority 1998, dated 2000).

Experiments:
ACAT = ACAT assay on liver microsomes of the diet-fed rats; format: biochemical; settings: ex vivo: liver microsomes of rats fed 1 % cholesterol plus 0.05 % neohesperidin dihydrochalcone for six weeks, versus Control group
Procedure: To determine the effect of feeding neohesperidin dihydrochalcone to rats on the activity of ACAT, microsomes were separated from liver tissues to be used as an enzyme source.
1 g each of the livers taken from each group of rats of Example 2 was homogenized in 5 ml of homogenization medium(0.1 M KH2PO4, pH 7.4, 0.1 mM EDTA and 10 mM β-mercaptoethanol). The homogenate was centrifuged at 3,000xg for 15 min. at 4°C and the supernatant thus obtained was centrifuged at 15,000xg for 15 min. at 4°C to obtain a supernatant. The supernatant was put into an ultracentrifuge tube(Beckman) and centrifuged at 100,000xg for 1 hour at 4°C to obtain microsomal pellets, which were then suspended in 3 ml of the homogenization medium and centrifuged at 100,000xg for 1 hour at 4°C. The pellets thus obtained were suspended in 1 ml of the homogenization medium. The protein concentration of the resulting suspension was determined by Lowry's method and then adjusted to 4 to 8 mg/ml. […]
200 µl of the resulting supernatant was put in a scintillation bottle and 4 ml of scintillation fluid(Lumac) was added thereto. The mixture was assayed for radioactivity with 1450 Microbeta liquid scintillation counter(Wallacoy, Finland). ACAT activity was calculated as picomoles of cholesteryl oleate synthesized per min. per mg protein(pmoles/min/mg protein).

HMG-CoA reductase = biological target: T1, HMG-CoA reductase (Rattus norvegicus, UniProt P51639); experiment: HMG-CoA reductase activity assay (modified Hulcher's method) on liver microsomes of the diet-fed rats; format: biochemical; settings: ex vivo: liver microsomes of rats fed 1 % cholesterol plus 0.05 % neohesperidin dihydrochalcone for six weeks, versus Control group
T1 construct: the supernatant was ultracentrifuged at 100,000xg for 60 minutes to obtain microsomal precipitates; from tissue; host or cells: rat liver microsomes
T1 sequence (P51639 1-887): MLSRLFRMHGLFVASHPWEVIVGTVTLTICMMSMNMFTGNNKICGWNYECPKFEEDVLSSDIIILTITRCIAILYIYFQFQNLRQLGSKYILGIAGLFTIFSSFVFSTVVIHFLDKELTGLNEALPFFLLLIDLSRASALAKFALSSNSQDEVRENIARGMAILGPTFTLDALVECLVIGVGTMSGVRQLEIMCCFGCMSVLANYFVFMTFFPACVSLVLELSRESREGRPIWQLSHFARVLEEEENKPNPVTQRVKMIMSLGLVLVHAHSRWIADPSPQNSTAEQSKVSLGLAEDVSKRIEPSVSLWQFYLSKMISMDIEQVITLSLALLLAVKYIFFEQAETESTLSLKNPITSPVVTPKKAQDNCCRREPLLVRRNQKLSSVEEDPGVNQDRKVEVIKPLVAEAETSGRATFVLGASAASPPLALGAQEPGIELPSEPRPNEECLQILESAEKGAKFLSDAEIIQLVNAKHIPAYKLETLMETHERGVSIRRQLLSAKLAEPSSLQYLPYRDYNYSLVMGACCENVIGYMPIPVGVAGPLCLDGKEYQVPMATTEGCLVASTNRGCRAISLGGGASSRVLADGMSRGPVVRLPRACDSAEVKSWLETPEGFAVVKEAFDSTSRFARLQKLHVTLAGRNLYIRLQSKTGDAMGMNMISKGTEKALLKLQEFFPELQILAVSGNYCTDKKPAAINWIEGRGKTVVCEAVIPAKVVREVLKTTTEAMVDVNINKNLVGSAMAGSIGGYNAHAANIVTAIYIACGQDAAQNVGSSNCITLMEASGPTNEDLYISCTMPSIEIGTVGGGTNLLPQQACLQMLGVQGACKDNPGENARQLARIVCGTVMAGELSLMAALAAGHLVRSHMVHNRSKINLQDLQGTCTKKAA
Procedure: In order to determine the activity of HMG-CoA reductase, Hulcher's method was employed after some modification (see J. Lipid Res., 14, 625-641(1973)). In this method, the concentration of the coenzyme-A(CoA-SH), which is produced when HMG-CoA is reduced to a mevalonate salt by the action of HMG-CoA reductase, is determined by spectroscopy and the activity of HMG-GoA reductase is calculated therefrom.
3 g of liver tissue taken from each group of rats of Example 2 was washed succesively with 100 ml of a cold-saline(0.15M NaCl) and 100ml of a cold buffer solution A(0.1M triethanolamine, HCl/0.2M EDTA/2mM dithiothreitol(DTT)). The cold buffer solution A was added to the liver tissue in an amount of 2 ml per 1 g of the liver tissue and the mixture was homogenized with a homogenizer. The homogenate was centrifuged at 15,000xg for 15 minutes, and then, the supernatant was ultracentrifuged at 100,000xg for 60 minutes to obtain microsomal precipitates. […]
Then, the reactant was mixed with 20µl of DTNB buffer solution(3mM DTNH/0.1M triethanolamine/0.2M EDTA, pH 7.4) and the absorbance of the mixture was determined at 412nm to calculate the amount of CoA-SH(activity of HMG-CoA reductase).
The extent of inhibition of HMG-CoA reductase activity by neohesperidin dihydrochalcone was calculated based on the above result.

COc1ccc(CCC(=O)c2c(O)cc(O[C@@H]3O[C@H](CO)[C@@H](O)[C@H](O)[C@H]3O[C@@H]3O[C@@H](C)[C@H](O)[C@@H](O)[C@H]3O)cc2O)cc1O [Neohesperidin dihydrochalcone]
%Inhibition on ACAT activity (ACAT): 20%
Inhibition of HMG-CoA reductase activity (%) (HMG-CoA reductase): 30%
